Test results from article PMC5456102, “NGR-peptide−drug conjugates with dual targeting properties” (PLoS ONE, 2017).

Legend:
DNA = conditions: main Dau containing metabolite; cited from earlier work
[1] = tested on: HT-29 (human colon adenocarcinoma) cells, CD13 negative; test: In vitro cytostatic effect (6 h treatment + 66 h drug-free); type: cell-based; conditions: HT-29, read-out: IC50, 6 h, HT-29 (cytostatic effect)
Method: (§1) At 72 h, supernatant was removed from the cells, and viability was assessed by the PrestoBlue® reagent (Life Technologies), which was diluted in PBS to reach the concentration given in the manufacturer’s instruction. Curves were fitted by GraphPad Prism 5 software using the sigmoidal dose–response model (https://www.graphpad.com/scientific-software/prism/). The conjugates were serially diluted, 9 concentrations were measured in triplicates. […] IC50 values were averaged; statistical significance was calculated using unpaired t-tests. The cytostatic/cytotoxic effect of the cyclic NGR peptide-Dau conjugates was examined in vitro on CD13-positive HT-1080 human fibrosarcoma cells and on CD13-negative HT-29 human colon adenocarcinoma cells. High expression of CD13 in HT-1080 cells was confirmed by FACS, using the CD13-specific OKM13 antibody. […] We compared the toxicity of the conjugates and the free drug molecules. It is important to note that the free drug enters the cell via diffusion, while the conjugates are taken up by a receptor-mediated pathway, which is followed by the intracellular release of the drug molecule or its active metabolite. […] In the second experiment the conjugates were added to the cells for 72 h (cytotoxic effect).

[2] = tested on: HT-1080 (human fibrosarcoma) cells, CD13 positive; test: as above; type: cell-based; conditions: HT-1080, read-out: IC50, 6 h, HT1080 (cytostatic effect)
Method: as §1

[3] = tested on: HT-29 (human colon adenocarcinoma) cells, CD13 negative; test: In vitro cytotoxicity (72 h treatment); type: cell-based; conditions: 72 h continuous treatment, PrestoBlue viability, 5000 cells/well, 9 concentrations in triplicates, IC50 averaged, tests carried out 3 times, read-out: IC50, 72 h, HT-29 (cytotoxic effect)
Method: as §1, with “In the case of cytotoxicity measurements, the drug containing medium was on the cells for the full period of the 72 h assay. At” for “At”

[4] = tested on: HT-1080 (human fibrosarcoma) cells, CD13 positive; test: In vitro cytotoxicity (72 h treatment); type: cell-based; conditions: 72 h continuous treatment, PrestoBlue viability, 5000 cells/well, 9 concentrations in triplicates, IC50 averaged, tests carried out 3 times, read-out: IC50, 72 h, HT1080 (cytotoxic effect)
Method: as §1, with “In the case of cytotoxicity measurements, the drug containing medium was on the cells for the full period of the 72 h assay. At” for “At”

Row | SMILES | binding to DNA (DNA) | IC50 [1] | IC50 [2] | IC50 [3] | IC50 [4]
1 | COc1cccc2c1C(=O)c1c(O)c3c(c(O)c1C2=O)C(OC1CC(N)C(O)C(C)O1)CC(O)(C(C)=NOCC(=O)NCC(=O)O)C3 (stereo not drawn) [Dau = Aoa-Gly-OH] | binds efficiently to DNA | – | – | – | –
2 | COc1cccc2c1C(=O)c1c(O)c3c(c(O)c1C2=O)C[C@@](O)(C(C)=O)C[C@@H]3O[C@H]1C[C@H](N)[C@H](O)[C@H](C)O1 [Daunomycin, daunomycin] | – | 700 ± 300 nM | 700 ± 300 nM | 150 ± 100 nM | 230 ± 100 nM
